Assay results taken from patent US8741836B2, “Polypeptides” (Novo Nordisk A/S, priority 2011, dated 2014).
Starred links: 1 amine or outer side, 2 acyl side, 3 side chain; linkers in the order of their positions; H or OH if unused. Positions of bridges follow the written chain, without caps; N, C: chain ends. Residues, ends and D or L forms follow the SMILES beside them. *: point of attachment. C20 diacid = O=C(O)CCCCCCCCCCCCCCCCCCC(=O)*; γGlu = O=C(O)[C@H](CCC(=O)[*:2])N[*:1]

Assay: Assay (III) ThT fibrillation assay for physical stability
Type: physicochemical
Settings: for ThT pH 4.0 lag time: pH 4.0, ThT fibrillation assay
Outline: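 Freshly prepared, pH-adjusted formulations with 1 μM ThT incubated at 37 °C under 960 rpm orbital shaking (1 mm), fluorescence (ex 444, em 485 nm) read every 20 min. […] Peptide content before and after measured by reverse-phase HPLC against pramlintide standard.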

Row | ThT pH 4.0 lag time (physical stability in fibrillogenesis assay) (pH 4.0) [h] | ThT pH 4.0 lag time [h] | SMILES
1 | >45 | >45 | CC[C@H](C)[C@H](NC(=O)[C@@H]1CCCN1C(=O)CNC(=O)[C@H](Cc1ccccc1)NC(=O)[C@H](CO)NC(=O)[C@H](CO)NC(=O)[C@H](CO)NC(=O)[C@H](CO)NC(=O)[C@H](CCCNC(=N)N)NC(=O)[C@@H](NC(=O)[C@H](CC(C)C)NC(=O)[C@H](Cc1ccccc1)NC(=O)[C@H](CCC(=O)O)NC(=O)[C@H](C)NC(=O)[C@H](CC(C)C)NC(=O)[C@H](CCCNC(=N)N)NC(=O)[C@H](CCC(N)=O)NC(=O)[C@@H](NC(=O)[C@H](C)NC(=O)[C@@H]1CSSC[C@H](NC(=O)[C@H](CCCCN)NC(=O)CC[C@H](NC(=O)CCCCCCCCCCCCCCCCCCC(=O)O)C(=O)O)C(=O)N[C@@H](CC(N)=O)C(=O)N[C@@H]([C@@H](C)O)C(=O)N[C@@H](C)C(=O)N[C@@H]([C@@H](C)O)C(=O)N1)[C@@H](C)O)C(C)C)C(=O)N[C@@H](CC(C)C)C(=O)N[C@@H](CO)C(=O)N[C@@H](CO)C(=O)N[C@H](C(=O)N[C@@H](CC(=O)O)C(=O)N[C@H](C(=O)NCC(=O)N[C@@H](CO)C(=O)N[C@@H](CC(=O)O)C(=O)N[C@H](C(=O)N1CCC[C@H]1C(N)=O)[C@@H](C)O)C(C)C)[C@@H](C)O [Example 170, N-alpha-[(S)-4-Carboxy-4-(19-carboxynonadecanoylamino)butyryl]-[Glu14,Arg18,Ser21,Ser22,Ser28,Ser29,Asp31,Asp35,Pro37]-pramlintide] ({C20 diacid-γGlu}-KCNTATCATQRLAEFLVRSSSSFGPILSSTDVGSDTP-NH2; disulfide 2-7)
2 | – | >45 | CC[C@H](C)[C@H](NC(=O)[C@@H]1CCCN1C(=O)CNC(=O)[C@H](Cc1ccccc1)NC(=O)[C@H](CC(N)=O)NC(=O)[C@H](CC(N)=O)NC(=O)[C@H](CO)NC(=O)[C@H](CO)NC(=O)[C@H](Cc1c[nH]cn1)NC(=O)[C@H](Cc1c[nH]cn1)NC(=O)[C@H](CC(C)C)NC(=O)[C@H](Cc1ccccc1)NC(=O)[C@H](CCC(=O)O)NC(=O)[C@H](C)NC(=O)[C@H](CC(C)C)NC(=O)[C@H](CCCNC(=N)N)NC(=O)[C@H](CCC(N)=O)NC(=O)[C@@H](NC(=O)[C@H](C)NC(=O)[C@@H]1CSSC[C@H](NC(=O)[C@H](Cc2c[nH]cn2)NC(=O)[C@H](Cc2c[nH]cn2)NC(=O)[C@H](Cc2c[nH]cn2)NC(=O)CC[C@H](NC(=O)CCCCCCCCCCCCCCCCCCC(=O)O)C(=O)O)C(=O)N[C@@H](Cc2c[nH]cn2)C(=O)N[C@@H]([C@@H](C)O)C(=O)N[C@@H](C)C(=O)N[C@@H]([C@@H](C)O)C(=O)N1)[C@@H](C)O)C(=O)N[C@@H](CC(C)C)C(=O)N1CCC[C@H]1C(=O)N1CCC[C@H]1C(=O)N[C@H](C(=O)N[C@@H](CC(N)=O)C(=O)N[C@H](C(=O)NCC(=O)N[C@@H](CO)C(=O)N[C@@H](Cc1c[nH]cn1)C(=O)N[C@H](C(=O)N[C@@H](Cc1ccc(O)cc1)C(N)=O)[C@@H](C)O)C(C)C)[C@@H](C)O [Example 32, N-alpha-[(S)-4-Carboxy-4-(19-carboxynonadecanoylamino)butyryl]-His-His-[His1,His3,Glu14,His17,His35]-pramlintide] ({C20 diacid-γGlu}-HHHCHTATCATQRLAEFLHHSSNNFGPILPPTNVGSHTY-NH2; disulfide 4-9)
